Experimental data reported in ChEMBL document CHEMBL1201862, “PubChem BioAssay data set” (2004).
The source made the active and inactive calls.

Assays:
[1] = Dd2 malaria parasite growth inhibition potency – SYBR Green, dry powder samples, dose response (AID 1159566); assay type: functional, cell-based;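 also: potency for growth inhibition with lower SYBR green DNA signal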
[2] = toxicity to human hepatoma HepG2 cells – cell-based, cherry-picked samples, cytotoxicity control, dose response (AID 1159577); assay type: functional
[3] = growth inhibition of PfATP4-mutant resistant parasites – NITD609-resistant line, SYBR Green, dry powder, dose response (AID 1159571); assay type: functional, cell-based;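 also: parasites synchronized at ring stage by sorbitol before testing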
HEK293 = assay: viability loss in HEK293T cells – cell-based, ATP luminescence, cherry-pick samples, cytotoxicity control, dose response (AID 687005); assay type: functional; conditions: Homo sapiens;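 also: cells exposed to compound for 48 hours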
[4] = toxicity to human HepG2 hepatoma cells – cell-based, plate reader, dry powder samples, cytotoxicity control, dose response (AID 1159569); assay type: functional;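 also: inhibitor potency with signal falling toward the positive control level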
HeLa = assay: viability loss in HeLa cells – cell-based, ATP luminescence, cherry-pick samples, cytotoxicity control, dose response (AID 687004); assay type: functional; conditions: Homo sapiens
[5] = growth inhibition of yeast DHODH-expressing 3D7 parasites – SYBR Green, dry powder samples, dose response (AID 1159570); assay type: functional, cell-based;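 also: parasite growth measured after 72 hours of compound exposure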
[6] = P. falciparum Dd2 growth inhibitors, dose response, SYBR Green, cherry-picked samples (AID 1159567); assay type: functional, cell-based
[7] = HEK293 Cytotoxicity Assay Measured in Cell-Based System Using Plate Reader - 7071-01_Inhibitor_Dose_CherryPick_Activity_Set2.; assay type: functional
[8] = blockade of melanocortin 4 receptor signaling – cell-based, plate reader, cherry pick, counter-screen for LGR2 antagonist project, dose response (AID 743444); assay type: functional;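 also: transfected HEK 293 cells stimulated with alpha-MSH peptide; potency of inhibitors of the alpha-MSH evoked signal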
[9] = viability loss in HEK293 cells – cell-based, plate reader, cherry-picked samples, cytotoxicity control, dose response (AID 743446); assay type: functional
[10] = inhibition of bursicon-driven LGR2 cAMP signaling – cell-based, HEK293, CRE-luciferase reporter, cherry pick, dose response (AID 743342); assay type: functional
[11] = toxicity toward HepG2 liver cells – cell-based, plate reader, cherry-pick, antagonist series, cytotoxicity control, dose response (AID 743416); assay type: functional
[12] = A549 cell cytotoxicity, dose response, cytotoxicity control, plate reader, cherry-pick, antagonist series (AID 743412); assay type: functional, cell-based
Kallikrein-7 = Kallikrein-7 (Homo sapiens, UniProt P49862); assay: Fluorescence Intensity-based biochemical primary high throughput dose response assay to identify activators of kallikrein-7 (K7) zymogen.
Sequence of Kallikrein-7 (P49862 whole entry): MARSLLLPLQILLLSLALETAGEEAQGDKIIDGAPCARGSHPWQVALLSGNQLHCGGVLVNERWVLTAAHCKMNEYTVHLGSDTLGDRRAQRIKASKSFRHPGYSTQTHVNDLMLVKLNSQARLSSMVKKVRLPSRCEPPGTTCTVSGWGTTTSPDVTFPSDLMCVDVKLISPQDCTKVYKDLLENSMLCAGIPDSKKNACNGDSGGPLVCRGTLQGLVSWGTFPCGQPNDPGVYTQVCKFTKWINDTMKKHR

Orexin receptor type 2 [13] = target: T1, Orexin receptor type 2 (Homo sapiens, UniProt O43614); assay: Counterscreen assay for antagonists of the orexin 1 receptor (OX1R; HCRTR1): Homogeneous Time Resolved Fluorescence (HTRF)-based cell-based dose response assay for antagonists of the orexin 2 receptor (OX2R; HCRTR2), run by assay provider.; assay type: functional
T1 sequence (O43614 whole entry): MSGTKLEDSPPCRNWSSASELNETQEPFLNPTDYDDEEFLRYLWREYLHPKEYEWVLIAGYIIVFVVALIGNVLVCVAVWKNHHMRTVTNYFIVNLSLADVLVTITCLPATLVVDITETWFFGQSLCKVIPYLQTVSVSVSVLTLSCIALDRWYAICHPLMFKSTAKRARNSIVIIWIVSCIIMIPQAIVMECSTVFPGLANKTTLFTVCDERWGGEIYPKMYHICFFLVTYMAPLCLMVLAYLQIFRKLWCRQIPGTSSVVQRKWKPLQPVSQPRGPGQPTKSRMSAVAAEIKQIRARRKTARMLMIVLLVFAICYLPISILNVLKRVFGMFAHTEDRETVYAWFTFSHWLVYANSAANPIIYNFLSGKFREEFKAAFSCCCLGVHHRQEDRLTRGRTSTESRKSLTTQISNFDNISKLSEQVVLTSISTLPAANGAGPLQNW

Orexin receptor type 2 [14] = target: T1, Orexin receptor type 2; assay: Counterscreen assay for antagonists of the orexin 1 receptor (OX1R; HCRTR1): Fluorescence-based cell-based dose response assay for antagonists of the orexin 2 receptor (OX2R; HCRTR2), run by assay provider.; assay type: functional
[15] = target: T2, Orexin/Hypocretin receptor type 1 (Homo sapiens, UniProt O43613); assay: (§1) Fluorescence-based cell-based high throughput dose response assay for antagonists of the orexin 1 receptor (OX1R; HCRTR1). [Related pubchem assays (depositor defined):AID434989, AID435008, AID463079, AID485270, AID492963, AID492964, AID492965, AID493232, AID504717, AID504718]; assay type: functional
T2 sequence (O43613 whole entry): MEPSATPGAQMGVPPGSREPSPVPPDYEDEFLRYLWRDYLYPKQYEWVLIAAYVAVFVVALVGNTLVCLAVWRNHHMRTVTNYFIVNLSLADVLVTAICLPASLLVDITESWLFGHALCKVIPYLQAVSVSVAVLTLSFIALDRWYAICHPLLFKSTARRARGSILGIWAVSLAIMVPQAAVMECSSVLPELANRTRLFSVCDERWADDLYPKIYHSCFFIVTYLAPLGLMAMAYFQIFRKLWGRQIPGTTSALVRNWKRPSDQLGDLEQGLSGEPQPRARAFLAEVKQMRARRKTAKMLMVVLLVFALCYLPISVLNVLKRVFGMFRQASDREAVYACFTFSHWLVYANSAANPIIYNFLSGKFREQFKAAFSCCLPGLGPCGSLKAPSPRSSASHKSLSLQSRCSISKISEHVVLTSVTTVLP

[16] = target: T2, Orexin/Hypocretin receptor type 1; assay: as §1, with “Homogeneous Time Resolved Fluorescence (HTRF)-based” for “Fluorescence-based”; assay type: functional
[17] = (§2) Counterscreen for antagonists of the orexin 1 receptor (OX1R; HCRTR1): Fluorescence-based cell-based high throughput dose response assay to identify antagonists of the parental CHO cell line. [Related pubchem assays (depositor defined):AID434989, AID435008, AID463079, AID485270, AID492963, AID492964, AID492965, AID493232, AID504699, AID504701]; assay type: functional
CHO-K1 = assay: as §2, with “Homogeneous time resolved fluorescence (HTRF)-based” for “Fluorescence-based”, “cell-based” for “cell-based high throughput”, “CHO-K1” for “CHO”; assay type: functional; conditions: Cricetulus griseus;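 also: potency for inhibition of ATP-stimulated IP1 production as antagonists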
[18] = Cytotoxicity screening for potential Inhibitors of Bacterial Capsule Biogenesis (4).; assay type: functional
Fatty acid synthase = Fatty acid synthase (Homo sapiens, UniProt P49327); assay: inhibition of human FAS-TE enzyme activity – biochemical, endpoint fluorescence intensity, powder samples, SAR follow-up (AID 652164); assay type: functional
Sequence of Fatty acid synthase (P49327 whole entry): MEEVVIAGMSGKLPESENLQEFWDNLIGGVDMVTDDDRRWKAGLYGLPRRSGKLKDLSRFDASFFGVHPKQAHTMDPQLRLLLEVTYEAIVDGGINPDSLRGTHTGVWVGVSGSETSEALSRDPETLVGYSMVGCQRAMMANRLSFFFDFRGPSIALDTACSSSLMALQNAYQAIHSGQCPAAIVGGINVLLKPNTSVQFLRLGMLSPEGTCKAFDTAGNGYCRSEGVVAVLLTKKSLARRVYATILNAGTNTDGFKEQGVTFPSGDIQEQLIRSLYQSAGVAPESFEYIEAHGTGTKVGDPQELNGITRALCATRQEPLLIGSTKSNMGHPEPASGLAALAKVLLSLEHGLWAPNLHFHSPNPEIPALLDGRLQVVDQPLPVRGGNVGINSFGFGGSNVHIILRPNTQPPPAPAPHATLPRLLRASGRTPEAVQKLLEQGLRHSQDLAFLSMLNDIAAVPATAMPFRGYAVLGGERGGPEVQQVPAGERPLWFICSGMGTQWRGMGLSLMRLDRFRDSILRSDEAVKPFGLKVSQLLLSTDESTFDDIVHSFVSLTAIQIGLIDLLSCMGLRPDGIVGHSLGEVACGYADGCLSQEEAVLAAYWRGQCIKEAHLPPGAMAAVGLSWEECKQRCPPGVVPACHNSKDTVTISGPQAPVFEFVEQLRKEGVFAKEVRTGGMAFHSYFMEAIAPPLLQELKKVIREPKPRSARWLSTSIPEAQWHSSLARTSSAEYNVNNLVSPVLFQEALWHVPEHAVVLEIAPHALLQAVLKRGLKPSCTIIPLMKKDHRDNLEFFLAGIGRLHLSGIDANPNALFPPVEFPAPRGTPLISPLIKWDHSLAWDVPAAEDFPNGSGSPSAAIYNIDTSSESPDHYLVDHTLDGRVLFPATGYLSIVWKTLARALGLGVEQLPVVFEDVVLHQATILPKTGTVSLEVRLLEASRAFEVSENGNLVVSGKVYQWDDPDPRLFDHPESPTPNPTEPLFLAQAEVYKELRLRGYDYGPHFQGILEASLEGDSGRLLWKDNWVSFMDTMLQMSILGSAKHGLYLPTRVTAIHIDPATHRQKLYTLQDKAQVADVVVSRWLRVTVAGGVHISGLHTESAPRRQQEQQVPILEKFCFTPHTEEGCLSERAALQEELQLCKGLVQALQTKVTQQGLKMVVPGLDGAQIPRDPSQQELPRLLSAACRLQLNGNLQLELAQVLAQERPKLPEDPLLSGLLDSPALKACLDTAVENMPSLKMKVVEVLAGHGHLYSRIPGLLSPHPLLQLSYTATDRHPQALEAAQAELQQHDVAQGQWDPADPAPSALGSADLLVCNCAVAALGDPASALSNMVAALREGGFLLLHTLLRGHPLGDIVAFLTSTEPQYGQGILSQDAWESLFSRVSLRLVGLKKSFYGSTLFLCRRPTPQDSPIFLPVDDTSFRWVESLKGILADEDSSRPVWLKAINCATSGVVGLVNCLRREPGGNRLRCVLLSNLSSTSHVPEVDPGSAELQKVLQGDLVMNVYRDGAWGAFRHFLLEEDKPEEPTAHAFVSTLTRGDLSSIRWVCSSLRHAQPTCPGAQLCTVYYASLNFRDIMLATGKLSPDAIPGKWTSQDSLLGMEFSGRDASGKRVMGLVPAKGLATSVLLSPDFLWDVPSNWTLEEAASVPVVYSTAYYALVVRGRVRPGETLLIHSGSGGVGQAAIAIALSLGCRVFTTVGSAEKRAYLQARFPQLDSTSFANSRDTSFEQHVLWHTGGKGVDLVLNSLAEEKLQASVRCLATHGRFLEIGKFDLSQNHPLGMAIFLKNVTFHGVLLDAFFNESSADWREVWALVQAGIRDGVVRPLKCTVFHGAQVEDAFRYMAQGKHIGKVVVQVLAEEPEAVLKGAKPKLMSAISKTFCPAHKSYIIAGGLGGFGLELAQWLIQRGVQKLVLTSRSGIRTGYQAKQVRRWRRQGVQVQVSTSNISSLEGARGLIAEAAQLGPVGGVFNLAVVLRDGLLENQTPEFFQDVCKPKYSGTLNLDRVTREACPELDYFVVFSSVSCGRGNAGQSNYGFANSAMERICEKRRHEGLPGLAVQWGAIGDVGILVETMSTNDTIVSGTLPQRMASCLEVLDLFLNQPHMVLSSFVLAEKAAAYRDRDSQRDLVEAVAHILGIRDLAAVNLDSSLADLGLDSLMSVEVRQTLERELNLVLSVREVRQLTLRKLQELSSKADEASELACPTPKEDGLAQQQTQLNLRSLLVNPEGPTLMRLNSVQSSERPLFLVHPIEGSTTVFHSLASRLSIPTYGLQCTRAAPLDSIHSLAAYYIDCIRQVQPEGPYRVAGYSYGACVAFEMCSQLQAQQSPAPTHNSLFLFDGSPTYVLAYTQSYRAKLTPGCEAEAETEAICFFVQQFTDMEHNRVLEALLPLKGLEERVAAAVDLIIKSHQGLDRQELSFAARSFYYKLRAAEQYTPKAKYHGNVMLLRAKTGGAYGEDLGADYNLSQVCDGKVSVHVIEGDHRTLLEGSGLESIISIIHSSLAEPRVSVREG

[19] = reduction of Shn3 3'UTR-driven luciferase in osteoblasts – cell-based, Clone20 osteoblasts, firefly luciferase, cherry-picked, dose response (AID 624132); assay type: functional;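 also: firefly luciferase luminescence from reporter carrying the Shn3 3'UTR in osteoblasts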
[20] = Shn3 3'UTR reporter signal decrease – cell-based, Clone20 osteoblasts, firefly luciferase, cherry-pick, set 2, Schnurri-3 inhibitor project, dose response (AID 720490); assay type: functional;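 also: actives lower the luminescence signal as inhibitors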
[21] = non-specific 3'UTR reporter inhibition in Clone20-Shn3RL – cell-based, Renilla luciferase, cherry-picked, counter-screen for Shn3 inhibitor project, dose response (AID 624133); assay type: functional
[22] = EF1alpha-driven Renilla reporter with control 3'UTR suppression – Clone20-Shn3RL cells, dual-Glo, cherry-pick, set 2, counter-screen for Shn3 3'UTR targeting project, dose response (AID 720724); assay type: functional, cell-based; conditions: Dual-Go Shn3RL
[23] = CTGF mRNA reduction in DLD1 cells – cell-based, DLD1 colon cancer, RT-qPCR, cherry-pick, dose response (AID 1053122); assay type: functional; conditions: Cancer cell lines

In the case of `C[C@@H]1CN([C@@H](C)CO)C(=O)c2c(c3ccccc3n2C)-c2ccccc2CO[C@@H]1CN(C)S(=O)(=O)c1ccc(Cl)cc1`, the AC50 [1] is reported as 1.97 µM (active), the AC50 [2] is reported as > 39 µM (inactive) and the AC50 [3] is reported as 3.4 µM (active). For the same molecule, the AC50 (HEK293) was 25.3 µM (active), the AC50 [4] was 39.2 µM (active) and the AC50 (HeLa) was 49.1 µM (active). The AC50 [5] was 3.95 µM (active), the AC50 [6] was 2.33 µM (active) and the AC50 [7] was 25.3 µM (active).

With `C[C@H]1CCCCO[C@@H](CN(C)S(=O)(=O)c2ccc(Cl)cc2)[C@@H](C)CN([C@@H](C)CO)C(=O)c2cc(NC(=O)NC3CCCCC3)ccc2O1` the AC50 [8] was 30.1 µM (active), the AC50 [9] was > 52 µM (inactive) and the AC50 [10] was 32.4 µM (active). The AC50 [11] was > 52 µM (inactive) and the AC50 [12] was 20.1 µM (active).

In the case of `O=C(OC1CCOC1=O)c1ccc(-c2nc3ccccc3s2)s1` (centres undefined), the EC50 (Kallikrein-7) is reported as > 69.5 µM (inactive), the IC50 (Orexin receptor type 2 [13]) is reported as 11.4 µM (inactive) and the IC50 (Orexin receptor type 2 [14]) is reported as > 88.8 µM (inactive). The IC50 [15] was 9.49 µM (active), the IC50 [16] was 1.98 µM (active) and the IC50 [17] was > 49.8 µM (inactive). For the same molecule, the IC50 (CHO-K1) was 29.9 µM (inactive).

With `Cc1nc2ccc(C(=O)Nc3ccncc3)cc2s1` the CC50 [18] was > 300 µM (active).

In the case of `O=C(Nc1nc(-c2ccc(S(=O)(=O)N3CCOCC3)cc2)cs1)C1CCCC1`, the IC50 (Fatty acid synthase) is reported as > 80 µM (inactive).

In the case of `COC(=O)C1=C(c2ccc(OCc3ccccc3)cc2)C[C@@H]2CC[C@H]1N2C(=O)NCCCCc1ccccc1`, the AC50 [19] is reported as 2.8 µM (active), the AC50 [20] is reported as 10.3 µM (active) and the AC50 [21] is reported as 25.6 µM (active). For the same molecule, the AC50 [22] was 35.9 µM (active).

With `CCc1nc(N2[C@H](CO)[C@@H](c3ccccc3-c3ccc(F)cc3)[C@@H]2C#N)sc1C` the AC50 [23] was > 26 µM (inactive).

In the case of `CC(C)OCCCn1c(=N)c(C(N)=S)cc2c(=O)n3ccccc3nc21`, the AC50 (cells) is reported as 0.61 µM (active).
